{
  "source": "patent US12466820B2",
  "about": "“Amino quinazoline derivatives as P2X3 inhibitors” (CHIESI FARMACEUTICI S.p.A., priority 2019, dated 2025)",
  "key": {"h P2X2/3": {"target": "T1, h P2X2/3 (Homo sapiens, UniProt P56373+Q9UBL9)", "T1 sequence (P56373 1-397)": "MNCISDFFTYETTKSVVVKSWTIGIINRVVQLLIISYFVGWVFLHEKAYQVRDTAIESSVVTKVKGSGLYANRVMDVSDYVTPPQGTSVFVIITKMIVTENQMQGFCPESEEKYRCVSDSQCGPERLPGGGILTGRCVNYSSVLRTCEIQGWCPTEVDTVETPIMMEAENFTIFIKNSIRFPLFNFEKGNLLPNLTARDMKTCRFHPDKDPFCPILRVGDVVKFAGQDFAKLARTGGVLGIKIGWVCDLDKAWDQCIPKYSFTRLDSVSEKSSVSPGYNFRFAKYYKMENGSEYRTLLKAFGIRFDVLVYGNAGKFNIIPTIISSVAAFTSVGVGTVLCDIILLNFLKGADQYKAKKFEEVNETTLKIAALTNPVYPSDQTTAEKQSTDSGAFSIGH", "T1 sequence (Q9UBL9 1-471)": "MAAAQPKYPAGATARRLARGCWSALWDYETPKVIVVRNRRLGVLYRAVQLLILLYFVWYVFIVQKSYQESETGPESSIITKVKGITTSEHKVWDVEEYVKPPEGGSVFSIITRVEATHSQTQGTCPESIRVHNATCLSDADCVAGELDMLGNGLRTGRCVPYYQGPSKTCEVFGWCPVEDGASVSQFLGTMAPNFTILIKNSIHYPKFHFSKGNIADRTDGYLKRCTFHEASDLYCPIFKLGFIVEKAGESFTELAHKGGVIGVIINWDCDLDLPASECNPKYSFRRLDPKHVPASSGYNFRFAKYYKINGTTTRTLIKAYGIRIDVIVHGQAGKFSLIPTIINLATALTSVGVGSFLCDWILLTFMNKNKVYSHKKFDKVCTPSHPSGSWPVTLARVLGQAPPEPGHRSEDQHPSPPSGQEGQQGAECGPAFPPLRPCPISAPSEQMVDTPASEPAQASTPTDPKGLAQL", "experiment": "In vitro electrophysiology assay for P2X2/3 (same protocol, 10 μM ATP as agonist)", "format": "cell-based", "details": "Table 7, range of activity", "experimental": "Cells expressing P2X3 receptors were grown according to standard practice and maintained at 37° C. in a 5% humidified CO2 atmosphere. The cells were seeded into T175 flask 2 days prior to the day of the assay and dissociated from the flasks using TrypLE when grown to confluence of 80-90%. The dissociated cells were resuspended in serum free media at a cell density of 3×10^6 cells/ml and loaded onto the Sophion Qube automated patch-clamp system. The extracellular assay buffer contained 145 mM NaCl, 4 mM KCl, 2 mM CaCl2), 1 mM MgCl2, 10 mM HEPES, and 10 mM glucose at pH 7.4. The intracellular assay solution contained 140 mM CsF, 10 mM NaCl, 10 mM EGTA, 10 mM HEPES at pH 7.2. Agonist stock solutions were prepared in H2O and diluted in bath solution prior to use. All antagonists were prepared as 10 mM stock solutions in DMSO and diluted in bath solution prior to use. All experiments were performed under the whole-cell patch clamp configuration at room temperature with 384 individual cells being voltage clamped at −60 mV simultaneously on the Sophion Qube instrument. Two baseline responses were established with the application of α,β-MeATP (800 nM), with the subsequent agonist applications being washed out using extracellular assay buffer containing 0.5 U/ml apyrase. Following the second agonist application, antagonist was incubated in the absence of α,β-MeATP for 10 minutes. After antagonist preincubation, 800 nM α,β-MeATP and antagonist were co-administered to determine the inhibitory effect of the antagonist. One concentration of an antagonist was assessed against a single cell, with different concentrations of the antagonist applied to other cells on the 384 recording substrate. The control P2X3 current amplitude was taken from the peak current amplitude from the second agonist response prior to preincubation with antagonist. The peak P2X3 current amplitude in the presence of antagonist was used to calculate the inhibitory effect at each concentration of the antagonist according to the following equation: […]\nConcentration-response curves were constructed from ten different concentrations with each concentration of antagonist tested on at least two individual cells. The concentration of the antagonist to inhibit P2X3 current by 50% (IC50) was determined by fitting the data with the following equation: […]\nWhere ‘a’ is minimum response, ‘b’ is maximum response, ‘c’ is IC50 and ‘d’ is Hill slope.\nRepresentative compound of the present invention have been also tested for P2X2/3 receptor.\nThe same assay protocol was used for the P2X2/3 assay as the P2X3 assay with two modifications: 1) 10 μM ATP was used as the agonist; and 2) the mean current amplitude was measured seven seconds after the application of agonist."}, "h P2X3": {"target": "T2, h P2X3 (Homo sapiens, UniProt P56373)", "T2 sequence (P56373 1-397)": "T1 sequence (P56373 1-397)", "experiment": "In vitro electrophysiology assay for P2X3 (automated whole-cell patch clamp, Sophion Qube)", "format": "cell-based", "details": "range of activity", "how_it_was_run": "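Whole-cell automated patch clamp at room temperature, cells held at −60 mV; after two 800 nM α,β-MeATP baseline responses, antagonist preincubated 10 min then co-applied with 800 nM α,β-MeATP. Inhibition of peak current vs second agonist response; IC50 from 10-concentration curves, one concentration per cell.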"}, "[1]": {"details": "Table 6, inhibition of P2X3 current, agonist α,β-MeATP (800 nM)"}},
  "data": [
    {"molecule": "COc1cc(-n2cc(C)cn2)cc2c(N[C@H](C)c3ccc(C)nn3)ncnc12", "note": "[Example 99, (R)-8-methoxy-6-(4-methyl-1H-pyrazol-1-yl)-N-(1-(6-methylpyridazin-3-yl)ethyl)quinazolin-4-amine]", "values": [
      {"measurement": "IC50", "setting": "h P2X2/3", "result": "0.316 to 3.16", "unit": "µM"},
      {"measurement": "IC50", "setting": "h P2X3; [1]", "result": "< 0.316", "unit": "µM"},
      {"measurement": "IC50", "setting": "h P2X3; Table 7", "result": "< 0.316", "unit": "µM"}
    ]},
    {"molecule": "COc1cc(-c2ncc(C)cn2)cc2c(NC(CO)c3nc(C)no3)ncnc12", "note": "(single isomer, unassigned) [Example 166]", "values": [
      {"measurement": "IC50", "setting": "h P2X2/3", "result": "3.16 to 31.6", "unit": "µM"},
      {"measurement": "IC50", "setting": "h P2X3; [1]", "result": "< 0.316", "unit": "µM"},
      {"measurement": "IC50", "setting": "h P2X3; Table 7", "result": "< 0.316", "unit": "µM"}
    ]},
    {"molecule": "COc1cc(-c2ncc(C)cn2)cc2c(NCc3cccc(=O)[nH]3)ncnc12", "note": "[Example 152, 6-(((8-methoxy-6-(5-methylpyrimidin-2-yl)quinazolin-4-yl)amino)methyl)pyridin-2(1H)-one]", "values": [
      {"measurement": "IC50", "setting": "h P2X2/3", "result": "3.16 to 31.6", "unit": "µM"},
      {"measurement": "IC50", "setting": "h P2X3; [1]", "result": "< 0.316", "unit": "µM"},
      {"measurement": "IC50", "setting": "h P2X3; Table 7", "result": "< 0.316", "unit": "µM"}
    ]},
    {"molecule": "COc1cc(-c2ccc(F)cc2)cc2c(NC(C)c3nc(-c4ccncc4)no3)ncnc12", "note": "(single isomer, unassigned) [Example 193, 6-(4-fluorophenyl)-8-methoxy-N-(1-(3-(pyridin-4-yl)-1,2,4-oxadiazol-5-yl)ethyl)quinazolin-4-amine]", "values": [
      {"measurement": "IC50", "setting": "h P2X2/3", "result": "0.316 to 3.16", "unit": "µM"},
      {"measurement": "IC50", "setting": "h P2X3; [1]", "result": "< 0.316", "unit": "µM"},
      {"measurement": "IC50", "setting": "h P2X3; Table 7", "result": "< 0.316", "unit": "µM"}
    ]},
    {"molecule": "COc1cc(-c2ccc(F)cn2)cc2c(NCc3cnc(C(F)(F)F)nc3)ncnc12", "note": "[Example 146, 6-(5-fluoropyridin-2-yl)-8-methoxy-N-((2-(trifluoromethyl)pyrimidin-5-yl)methyl)quinazolin-4-amine]", "values": [
      {"measurement": "IC50", "setting": "h P2X2/3", "result": "3.16 to 31.6", "unit": "µM"},
      {"measurement": "IC50", "setting": "h P2X3; [1]", "result": "< 0.316", "unit": "µM"},
      {"measurement": "IC50", "setting": "h P2X3; Table 7", "result": "< 0.316", "unit": "µM"}
    ]},
    {"molecule": "COc1cc(-c2ccc(F)cn2)cc2c(NCc3ccc(C)nc3)ncnc12", "note": "[Example 149, 6-(5-fluoropyridin-2-yl)-8-methoxy-N-((6-methylpyridin-3-yl)methyl)quinazolin-4-amine]", "values": [
      {"measurement": "IC50", "setting": "h P2X2/3", "result": "3.16 to 31.6", "unit": "µM"},
      {"measurement": "IC50", "setting": "h P2X3; [1]", "result": "< 0.316", "unit": "µM"},
      {"measurement": "IC50", "setting": "h P2X3; Table 7", "result": "< 0.316", "unit": "µM"}
    ]},
    {"molecule": "COc1cc(-c2ccc(F)cn2)cc2c(NC(C)c3nnc(C)s3)ncnc12", "note": "(single isomer, unassigned) [Example 174, 6-(5-fluoropyridin-2-yl)-8-methoxy-N-(1-(5-methyl-1,3,4-thiadiazol-2-yl)ethyl)quinazolin-4-amine]", "values": [
      {"measurement": "h P2X2/3", "setting": "h P2X2/3", "result": "+ (+: 5.5<pIC50 h P2X3 or h P2X2/3>4.5)"},
      {"measurement": "IC50", "setting": "h P2X3; [1]", "result": "< 0.316", "unit": "µM"},
      {"measurement": "IC50", "setting": "h P2X3; Table 7", "result": "< 0.316", "unit": "µM"}
    ]},
    {"molecule": "COc1cc(-c2ccc(F)cn2)cc2c(NC(C)c3ccc(C(F)(F)F)nn3)ncnc12", "note": "(single isomer, unassigned) [Example 169, 6-(5-fluoro-2-pyridyl)-8-methoxy-N-[1-[6-(trifluoromethyl)pyridazin-3-yl]ethyl]quinazolin-4-amine]", "values": [
      {"measurement": "IC50", "setting": "h P2X2/3", "result": "3.16 to 31.6", "unit": "µM"},
      {"measurement": "IC50", "setting": "h P2X3; [1]", "result": "< 0.316", "unit": "µM"},
      {"measurement": "IC50", "setting": "h P2X3; Table 7", "result": "< 0.316", "unit": "µM"}
    ]},
    {"molecule": "COc1cc(-c2ncc(C)cn2)cc2c(NCc3ccn(C)c(=O)c3)ncnc12", "note": "[Example 151, 4-(((8-methoxy-6-(5-methylpyrimidin-2-yl)quinazolin-4-yl)amino)methyl)-1-methylpyridin-2(1H)-one]", "values": [
      {"measurement": "IC50", "setting": "h P2X2/3", "result": "0.316 to 3.16", "unit": "µM"},
      {"measurement": "IC50", "setting": "h P2X3; [1]", "result": "< 0.316", "unit": "µM"},
      {"measurement": "IC50", "setting": "h P2X3; Table 7", "result": "< 0.316", "unit": "µM"}
    ]},
    {"molecule": "Cc1ccc(CNc2ncnc3c(OC4CCOCC4)cc(-c4ccc(F)cn4)cc23)nn1", "note": "[Example 30, 6-(5-fluoro-2-pyridyl)-N-[(6-methylpyridazin-3-yl)methyl]-8-tetrahydropyran-4-yloxy-quinazolin-4-amine]", "values": [
      {"measurement": "IC50", "setting": "h P2X2/3", "result": "3.16 to 31.6", "unit": "µM"},
      {"measurement": "IC50", "setting": "h P2X3; [1]", "result": "0.316 to 3.16", "unit": "µM"},
      {"measurement": "IC50", "setting": "h P2X3; Table 7", "result": "0.316 to 3.16", "unit": "µM"}
    ]},
    {"molecule": "COc1cc(-c2ncc(F)cn2)cc2c(NC(C)c3noc(C)n3)ncnc12", "note": "(stereo not drawn) [Example 108, 6-(5-fluoropyrimidin-2-yl)-8-methoxy-N-(1-(5-methyl-1,2,4-oxadiazol-3-yl)ethyl)quinazolin-4-amine]", "values": [
      {"measurement": "IC50", "setting": "h P2X2/3", "result": "3.16 to 31.6", "unit": "µM"},
      {"measurement": "IC50", "setting": "h P2X3; [1]", "result": "0.316 to 3.16", "unit": "µM"},
      {"measurement": "IC50", "setting": "h P2X3; Table 7", "result": "0.316 to 3.16", "unit": "µM"}
    ]},
    {"molecule": "COc1cc(-c2ccc(F)cn2)cc2c(NC(C)c3nc(C)no3)ncnc12", "note": "(single isomer, unassigned) [Example 176, 6-(5-fluoropyridin-2-yl)-8-methoxy-N-(1-(3-methyl-1,2,4-oxadiazol-5-yl)ethyl)quinazolin-4-amine]", "values": [
      {"measurement": "IC50", "setting": "h P2X2/3", "result": "3.16 to 31.6", "unit": "µM"},
      {"measurement": "IC50", "setting": "h P2X3; [1]", "result": "< 0.316", "unit": "µM"},
      {"measurement": "IC50", "setting": "h P2X3; Table 7", "result": "< 0.316", "unit": "µM"}
    ]}
  ]
}
